The values below come from patent publication US20100137440A1, “LYSINE RIBOSWITCHES, STRUCTURE-BASED COMPOUND DESIGN WITH LYSINE RIBOSWITCHES, AND METHODS AND COMPOSITIONS FOR USE OF AND WITH LYSINE RIBOSWITCHES” (Yale University, priority 2006, published 2010).

In series [1] the test system is resistant B. subtilis strains (M1, M2). Put plainly: MIC toward L-4-oxalysine-resistant strains (M1, M2). The format is cell-based. The settings on record: for effect of M1 and M2 mutations on susceptibility: M1 and M2 strains.
Another series concerns B. subtilis 168 (1A1). Put plainly: Antibacterial activity assay (growth curves, MIC) in chemically defined minimal media. Type of series: cell-based. The conditions noted are these: for complete inhibition of bacterial growth for 24 h: minimal medium; for bacterial growth in minimal medium: 100 μM compound, chemically-defined minimal medium.
Series [2] concerns lysC lysine riboswitch upstream of lacZ reporter gene. Put plainly: In vivo reporter gene (β-galactosidase) expression assay, wild-type lysC riboswitch. Type of series: cell-based, B. subtilis. The settings on record: for repression of β-galactosidase reporter gene expression controlled by lysC riboswitch: 3 h growth in presence of compound (5 mM, FIG. 3c); for reporter gene expression at the compound's MIC: at respective MICs. For orientation: In a reporter assay the amount or activity of a reporter protein is the signal.

The test system of series [3] is 179-nucleotide receptor domain (179 lysC) of the lysC lysine riboswitch. Briefly: In-line probing assay, ligand binding to 179 lysC. Further details: species or system B. subtilis. The conditions noted are these: for binding to 179 lysC / lysine aptamer (in words): in vitro.
Series [4] concerns B. subtilis 168 strain 1A1 (WT). Briefly: Sporulation assay, WT strain. The settings on record: for % Viable spore formation, WT: spores after heat shock relative to CFU before heat shock.
The subject of a further series is B. subtilis M2 strain. Briefly: Sporulation assay, M2 strain. The conditions noted are these: 2 mM analog; spores after heat shock relative to CFU before heat shock.
For series [5], the system named is 179-nucleotide receptor domain (179 lysC) of the lysC lysine riboswitch. The conditions noted are these: Sudarsan 2006; cited from earlier work.
The test system of series [6] is lysC lysine riboswitch upstream of lacZ reporter gene. The conditions noted are these: Sudarsan 2006; cited from earlier work.
A further series has as its system B. cereus. The format is cell-based, Bacillus cereus. The settings on record: minimal medium.
Series [7] concerns lysC riboswitch with the M1 or M2 mutation upstream of β-galactosidase reporter. Briefly: Reporter gene (β-galactosidase) expression assay, M1 or M2 riboswitch constructs. Type of series: cell-based, B. subtilis. The conditions noted are these: high compound concentrations (lysine as high as 5 mM).
In series [8] the test system is B. subtilis lysine auxotroph strain 1A40. Type of series: cell-based. The conditions noted are these: 1 mM compound, 3 h, minimal media.

Molecules are shown by their SMILES. “Also recorded” adds a separate entry of the source.

For the compound `NC/C=C/CC(N)C(=O)O` (racemic) [Compound 4, DL-trans-2,6-diamino-4-hexenoic acid], in series [1], the “effect of M1 and M2 mutations on susceptibility” value was “confer resistance”. Besides, in the series with B. subtilis 168 (1A1), the “complete inhibition of bacterial growth for 24 h” value (“complete inhibition” for short) was “completely inhibit bacterial growth”. Further, the “repression of β-galactosidase reporter gene expression controlled by lysC riboswitch” value (from here on “repression … by lysC riboswitch”) in [2] was “significantly repress”. The “binding to 179 lysC / lysine aptamer (in words)” value in [3] is “bind well”.
As to `NCC(=O)CCC(N)C(=O)O` (racemic) [Compound 8, DL-5-oxolysine], the “formation of viable spores (in words)” value in [4] is “do not”. The “% Viable spore formation, WT” value in [4] (2 mM analog) came to 47%. The “bacterial growth in minimal medium” value with B. subtilis 168 (1A1) is “modest level of growth inhibition activity”. Also, in [2], the “repression … by lysC riboswitch” value was “do not repress expression”. The “binding to 179 lysC / lysine aptamer (in words)” value in series [3] is on record as “poor affinity; also recorded: rejected by the lysine aptamer”. For the same compound, in the series with B. subtilis M2 strain, the “% Viable spore formation, M2” value is 9%.
Consider `NCC(O)CC[C@H](N)C(=O)O` (stereo partly shown) [5-hydroxylysine], for which the “binding to the lysC riboswitch (previous report)” value in series [5] was “fails to bind”.
With `NCCSC[C@H](N)C(=O)O` [AEC, L-aminoethylcysteine], in [5], the “binding to the lysC riboswitch (previous report)” value was “bind well; also recorded: binds to the lysC riboswitch”. Further, the “repression of lysC-regulated reporter gene (previous report)” value in [6] is “represses the expression”.
With `NCCS(=O)(=O)C[C@H](N)C(=O)O` [Compound 1, L-3-[(2-aminoethyl)-sulfonyl]-alanine], the “growth inhibition of B. cereus relative to B. subtilis” value with B. cereus is 13 fold. Further, the “effect of M1 and M2 mutations on susceptibility” value in [1] was “confer resistance”. The “formation of viable spores (in words)” value in series [4] is given as “inhibit the formation of viable spores”. The “% Viable spore formation, WT” value in series [4] (0.2 mM analog) worked out at 7%; in series [4] (2 mM analog) it was 0%. Besides, the “complete inhibition” value in the series with B. subtilis 168 (1A1) was “completely inhibit bacterial growth”. Further, the “repression … by lysC riboswitch” value in [2] was “significantly repress”. Also, the “reporter gene expression at the compound's MIC” value in [2] is listed as “completely repress”. For the same compound, the “β-galactosidase expression from M1 or M2 constructs” value in series [7] is listed as “fully active β-galactosidase is still expressed”. Further, the “binding to 179 lysC / lysine aptamer (in words)” value in series [3] is given as “bind well”. Besides, in the series on B. subtilis M2 strain, the “% Viable spore formation, M2” value is 17%.
For `NCCOC[C@H](N)C(=O)O` [Compound 2, L-4-oxalysine], the “increase of MIC in resistant colonies” value in series [1] (24 colonies isolated by serial passage, versus wild type) is “at least 9 fold”. For the same compound, the “formation of viable spores (in words)” value in series [4] is on record as “inhibit the formation of viable spores”. Besides, in series [4] (0.2 mM analog), the “% Viable spore formation, WT” value amounted to 71%. Also, the “% Viable spore formation, WT” value in series [4] (2 mM analog) was determined as 6%. Moreover, the “complete inhibition” value with B. subtilis 168 (1A1) is on record as “completely inhibit bacterial growth”. Also, in series [2], the “repression … by lysC riboswitch” value is given as “significantly repress” and the “reporter gene expression at the compound's MIC” value was “completely repress”. Moreover, the “β-galactosidase expression from M1 or M2 constructs” value in series [7] is reported as “fully active β-galactosidase is still expressed”. For the same compound, in series [3], the “binding to 179 lysC / lysine aptamer (in words)” value is given as “bind well”. In the series on B. subtilis M2 strain, the “% Viable spore formation, M2” value was 65%.
Regarding `N=C(N)NCCCC[C@H](N)C(=O)O` [Compound 3, L-homoarginine], the “growth of lysine auxotroph strain 1A40” value in [8] is “supports the growth; also recorded: support growth”. Further, the “binding to 179 lysC / lysine aptamer (in words)” value in [3] is on record as “binds strongly”.
As for `CC(=O)N[C@@H](CCCCN)C(=O)O` [Compound 5, L-N^2-acetyllysine], the “binding to 179 lysC / lysine aptamer (in words)” value in series [3] is on record as “does not tolerate modifications at N2”.
Turning to `CC(=N)NCCCC[C@H](N)C(=O)O` [Compound 7, L-N^6-1-iminoethyllysine], the “bacterial growth in minimal medium” value with B. subtilis 168 (1A1) is listed as “fails to inhibit cell growth”. For the same compound, the “repression … by lysC riboswitch” value in series [2] is on record as “does not repress”. In addition, the “binding to 179 lysC / lysine aptamer (in words)” value in [3] is on record as “strong binding”.
`Nc1cc(C[C@H](N)C(=O)O)ccc1O` [Compound 9, L-3-aminotyrosine]: the “formation of viable spores (in words)” value in series [4] is recorded as “do not”. The “% Viable spore formation, WT” value in series [4] (2 mM analog) is 75%. For the same compound, the “bacterial growth in minimal medium” value in the series on B. subtilis 168 (1A1) is “modest level of growth inhibition activity”. For the same compound, the “repression … by lysC riboswitch” value in series [2] is given as “do not repress expression”. Also, the “binding to 179 lysC / lysine aptamer (in words)” value in series [3] is given as “poor affinities; also recorded: rejected by the lysine aptamer”. Also, the “% Viable spore formation, M2” value in the series with B. subtilis M2 strain is reported as 75%.
Turning to `Nc1ccccc1C(=O)C[C@H](N)C(=O)O` [Compound 10, L-2-amino-3-(2-aminobenzoyl)-propionic acid], the “binding to 179 lysC / lysine aptamer (in words)” value in series [3] is “poor affinities”.
The same measure, in the same setting: as for `CN[C@@H](CCCCN)C(=O)O` [Compound 11, L-N^2-methyllysine], the entry is “does not tolerate modifications at N2”; as for `C[N+](C)(C)CCCC[C@H](N)C(=O)O` [Compound 12, L-N^6-trimethyllysine], “no binding is observed”.
Take `NCCCC[C@H](N)C(=O)O` [lysine, L-lysine]: in series [8], the “growth of lysine auxotroph strain 1A40” value is “support growth”. For the same compound, the “repression … by lysC riboswitch” value in series [2] is “strongly repressed”. Further, the Kd (usually the concentration at which binding is half-saturated) in [3] came out at 360 nM.
